Where two headings read alike, the source gives them in different places.

One experiment relates to WT LAI. Kind of experiment: microbe, parasite or virus in culture. The experiment is classed as cell-based, HIV-1. Conditions: Human immunodeficiency virus 1, MT2, read-out: WT LAI EC50. The procedure: (§1) The antiviral activity of the compound of Formula (a) was tested against a panel of known HIV-1 mutants resistant to HIV PIs (ATV and DRV), NRTIs (TFV and FTC), NNRTIs (RPV and EFV) or INSTIs (RAL, EVG and DTG) using a cytopathic antiviral assay in MT-2 cells.

In the next experiment the test system is NRTI-resistant viruses. It is filed as cell-based, HIV-1. Conditions: Mutant/WT (LAI) EC50 ratio, MT-2 cells, mean ± s.d. of three experiments. The procedure: as §1
For another experiment, the system named is INSTI-resistant viruses. Kind of experiment: Cytopathic antiviral assay in MT-2 cells, INSTI-resistant viruses. The experiment is classed as cell-based, HIV-1. Conditions: Mutant/WT (HXB2D) EC50 ratio, mean ± s.d. of three experiments. The procedure: (§2) The antiviral activity of the compound of Formula (a) was tested against a panel of known HIV-1 mutants resistant to HIV PIs (ATV and DRV), NRTIs (TFV and FTC), NNRTIs (RPV and EFV) or INSTIs (RAL, EVG and DTG) using a cytopathic antiviral assay in MT-2 cells. The compound of Formula (Ia) was fully active against all tested mutants resistant to PIs (Table 11), NRTIs (Table 12), NNRTIs (Table 13) or INSTIs (Table 14).
Background: Damage to the host cells serves as the signal in cytopathic effect assays.

Another experiment concerns HIV-1 clinical isolates. Put plainly: Antiviral activity against HIV-1 clinical isolates in PHA-stimulated human PBMCs. It is filed as cell-based. The procedure:
(§3) The antiretroviral activity of the compound of Formula (Ia) was tested against a panel of 22 HIV-1 clinical isolates of HIV-1 and two HIV-2 isolates in freshly isolated, PHA-stimulated human peripheral blood mononuclear cells (PBMCs). The HIV-1 isolates included representative strains from subtypes A, B, C, D, E, F, G, N, O, AE, and AG. Following a 7-day infection, virus production was determined by measuring reverse transcriptase activity in cell-free culture supernatants.

In another experiment the test system is HIV-2 isolates. Kind of experiment: Antiviral activity against HIV-2 isolates in PHA-stimulated human PBMCs. Conditions: Human immunodeficiency virus 2, PBMC, 168 h, 7-day infection, RT activity readout, mean of triplicate. It is filed as cell-based. The procedure: as §3
Another experiment relates to WT HXB2D. Kind of experiment: Cytopathic antiviral assay in MT-2 cells, wild type HXB2D. It is filed as cell-based, HIV-1. Conditions: Human immunodeficiency virus 1, MT2, read-out: WT HXB2D EC50, MT-2 cells, mean ± s.d. of three experiments in triplicate. The procedure: as §2
The test system of the next experiment is PI-resistant viruses. Kind of experiment: Cytopathic antiviral assay in MT-2 cells, PI-resistant viruses. The experiment is classed as cell-based, HIV-1. Conditions: Mutant/WT (HXB2D) EC50 ratio, mean ± s.d. of three experiments. The procedure:
as §2

[1] abbreviates: INSTI-resistance panel (Table 14).

Usually EC50 stands for the concentration giving half of the maximal effect. Turning to `Nc1nc(=O)n([C@@H]2CS[C@H](CO)O2)cc1F` [FTC, emtricitabine], in the experiment with WT LAI, the EC50 was 2.41 ± 1.16 nM. The “EC50 Fold-Change” value in the experiment on NRTI-resistant viruses (6TAMs) was 4.1 ± 2.5; with NRTI-resistant viruses (K65R), 12.8 ± 2.4; in the experiment on NRTI-resistant viruses (M184V), above 20.8.
As to `C[C@@H]1CCO[C@H]2Cn3cc(C(=O)NCc4ccc(F)cc4F)c(=O)c(O)c3C(=O)N12` [DTG, dolutegravir], the “EC50 Fold-Change” value in the experiment with INSTI-resistant viruses (E92Q/N155H) was 3.0 ± 1.1; in the experiment on INSTI-resistant viruses (E138K/Q148K), 7.3 ± 4.1; in the experiment on INSTI-resistant viruses (G140S/Q148R) it was 6.9 ± 3.1; in the experiment on INSTI-resistant viruses (N155H/Q148R), 1.5 ± 0.6; in the experiment with INSTI-resistant viruses (R263K/M50I), 2.8 ± 2.1; in the experiment with INSTI-resistant viruses (Y143R) it was 0.8 ± 0.3. Also, the 50% effective concentration (EC50) in the experiment on HIV-1 clinical isolates (Human immunodeficiency virus 1, BAL, PBMC, 168 h, read-out: EC50 in human PBMCs, HIV-1 subtype B isolate Ba-L, 7-day infection, RT activity readout, mean of triplicate) came to 0.4 nM; in the experiment with HIV-1 clinical isolates (Human immunodeficiency virus 1, PBMC, 168 h, read-out: EC50 in human PBMCs, HIV-1 CRF01_AE isolate 90TH_CM235, 7-day infection, RT activity readout, mean of triplicate), 1.02 nM; with HIV-1 clinical isolates (Human immunodeficiency virus 1, PBMC, 168 h, read-out: EC50 in human PBMCs, HIV-1 CRF02_AG isolate 01CM0008BBY, 7-day infection, RT activity readout, mean of triplicate), 1.04 nM; with HIV-1 clinical isolates (Human immunodeficiency virus 1, PBMC, 168 h, read-out: EC50 in human PBMCs, HIV-1 CRF02_AG isolate 91DJ263, 7-day infection, RT activity readout, mean of triplicate) it was 0.45 nM; with HIV-1 clinical isolates (Human immunodeficiency virus 1, PBMC, 168 h, read-out: EC50 in human PBMCs, HIV-1 Group N isolate YBF30, 7-day infection, RT activity readout, mean of triplicate) it was 0.54 nM; in the experiment on HIV-1 clinical isolates (Human immunodeficiency virus 1, PBMC, 168 h, read-out: EC50 in human PBMCs, HIV-1 Group O isolate BCF01, 7-day infection, RT activity readout, mean of triplicate), 0.64 nM. Moreover, the EC50 was found to be 0.63 nM with HIV-1 clinical isolates (Human immunodeficiency virus 1, PBMC, 168 h, read-out: EC50 in human PBMCs, HIV-1 subtype A isolate 92UG031, 7-day infection, RT activity readout, mean of triplicate); 0.47 nM in the experiment with HIV-1 clinical isolates (Human immunodeficiency virus 1, PBMC, 168 h, read-out: EC50 in human PBMCs, HIV-1 subtype A isolate 92UG037, 7-day infection, RT activity readout, mean of triplicate); 1.18 nM in the experiment on HIV-1 clinical isolates (Human immunodeficiency virus 1, PBMC, 168 h, read-out: EC50 in human PBMCs, HIV-1 subtype B isolate 89BZ_167, 7-day infection, RT activity readout, mean of triplicate); 0.82 nM with HIV-1 clinical isolates (Human immunodeficiency virus 1, PBMC, 168 h, read-out: EC50 in human PBMCs, HIV-1 subtype B isolate 90US_873, 7-day infection, RT activity readout, mean of triplicate); 0.53 nM in the experiment on HIV-1 clinical isolates (Human immunodeficiency virus 1, PBMC, 168 h, read-out: EC50 in human PBMCs, HIV-1 subtype B isolate 91US001, 7-day infection, RT activity readout, mean of triplicate); 0.4 nM in the experiment with HIV-1 clinical isolates (Human immunodeficiency virus 1, PBMC, 168 h, read-out: EC50 in human PBMCs, HIV-1 subtype B isolate 91US004, 7-day infection, RT activity readout, mean of triplicate). Further, the concentration giving a half-maximal response (EC50) in the experiment on HIV-1 clinical isolates (Human immunodeficiency virus 1, PBMC, 168 h, read-out: EC50 in human PBMCs, HIV-1 subtype B isolate 96TH_NP1538, 7-day infection, RT activity readout, mean of triplicate) is 0.4 nM; with HIV-1 clinical isolates (Human immunodeficiency virus 1, PBMC, 168 h, read-out: EC50 in human PBMCs, HIV-1 subtype B isolate JR-CSF, 7-day infection, RT activity readout, mean of triplicate), 0.41 nM; in the experiment on HIV-1 clinical isolates (Human immunodeficiency virus 1, PBMC, 168 h, read-out: EC50 in human PBMCs, HIV-1 subtype C isolate 92BR025, 7-day infection, RT activity readout, mean of triplicate), 0.91 nM; in the experiment with HIV-1 clinical isolates (Human immunodeficiency virus 1, PBMC, 168 h, read-out: EC50 in human PBMCs, HIV-1 subtype C isolate 98US_MSC5016, 7-day infection, RT activity readout, mean of triplicate) it was 0.77 nM; in the experiment with HIV-1 clinical isolates (Human immunodeficiency virus 1, PBMC, 168 h, read-out: EC50 in human PBMCs, HIV-1 subtype D isolate 92UG001, 7-day infection, RT activity readout, mean of triplicate), 1.09 nM; in the experiment with HIV-1 clinical isolates (Human immunodeficiency virus 1, PBMC, 168 h, read-out: EC50 in human PBMCs, HIV-1 subtype D isolate 98UG_57128, 7-day infection, RT activity readout, mean of triplicate), 0.7 nM. Further, the half-maximal effective concentration (EC50) in the experiment on HIV-1 clinical isolates (Human immunodeficiency virus 1, PBMC, 168 h, read-out: EC50 in human PBMCs, HIV-1 subtype E isolate CMU02, 7-day infection, RT activity readout, mean of triplicate) was determined as 0.81 nM; in the experiment with HIV-1 clinical isolates (Human immunodeficiency virus 1, PBMC, 168 h, read-out: EC50 in human PBMCs, HIV-1 subtype E isolate CMU08, 7-day infection, RT activity readout, mean of triplicate) it was 0.96 nM; with HIV-1 clinical isolates (Human immunodeficiency virus 1, PBMC, 168 h, read-out: EC50 in human PBMCs, HIV-1 subtype F isolate 93BR020, 7-day infection, RT activity readout, mean of triplicate) it was 0.38 nM; in the experiment with HIV-1 clinical isolates (Human immunodeficiency virus 1, PBMC, 168 h, read-out: EC50 in human PBMCs, HIV-1 subtype G isolate JV1083, 7-day infection, RT activity readout, mean of triplicate) it was 0.93 nM; with HIV-1 clinical isolates (Human immunodeficiency virus 1, PBMC, read-out: HIV-1 EC50 Mean ± s.d., mean over the 22 HIV-1 clinical isolates, human PBMCs) it was 0.7 ± 0.26 nM; in the experiment on HIV-1 clinical isolates (Human immunodeficiency virus 1, PBMC, read-out: HIV-1 EC50 Median, median over the 22 HIV-1 clinical isolates, human PBMCs), 0.67 nM. The EC50 with HIV-1 clinical isolates (Human immunodeficiency virus 1, PBMC, read-out: HIV-1 EC50 Range, range over the 22 HIV-1 clinical isolates, human PBMCs) was 0.38 to 1.18 nM; with HIV-2 isolates (HIV-2 isolate CBL-20), 0.36 nM; with HIV-2 isolates (HIV-2 isolate CDC310319), 1.81 nM; in the experiment on WT HXB2D (setting [1]), 2.24 ± 0.46 nM.
`COc1cc2c(cc1Cc1cccc(Cl)c1F)c(=O)c(C(=O)O)cn2[C@H](CO)C(C)C` [EVG, elvitegravir]: the “EC50 Fold-Change” value was above 53.5 with INSTI-resistant viruses (E92Q/N155H); above 53.5 in the experiment with INSTI-resistant viruses (E138K/Q148K); above 53.5 with INSTI-resistant viruses (G140S/Q148R); 51.0 ± 2.5 in the experiment with INSTI-resistant viruses (N155H/Q148R); 5.1 ± 3.7 with INSTI-resistant viruses (R263K/M50I); 2.1 ± 0.2 with INSTI-resistant viruses (Y143R). For the same compound, the “EC50 Fold-Change” value in the experiment on NRTI-resistant viruses (6TAMs) came to 0.6 ± 0.4; with NRTI-resistant viruses (K65R) it was 0.8 ± 0.2; in the experiment on NRTI-resistant viruses (M184V) it was 1.1 ± 0.7; with PI-resistant viruses (G48V/V82A/L90M), 0.8 ± 0.4; with PI-resistant viruses (G48V/V82S), 0.7 ± 0.3; with PI-resistant viruses (I50V), 1.7 ± 1.0. Further, in the experiment with PI-resistant viruses (I84V/L90M), the “EC50 Fold-Change” value was determined as 1.0 ± 0.7. Besides, the EC50 is 2.64 ± 0.9 nM with WT LAI, 1.87 ± 0.19 nM in the experiment with WT HXB2D (setting [1]) and 2.02 ± 0.88 nM with WT HXB2D (PI-resistance panel (Table 11)).
